Tests used:
[1] = inactive metabolites after enzymatic degradation; cited from earlier work
Solubility in lipids = assay type: physicochemical

Compound	metabolites expired from the lungs in the form of CO2 [1] [%]	solubility in lipids (Solubility in lipids)	metabolites excreted in the urine [1]
Cc1ccc(C(C)C)c(O)c1 [isopropyl-cresol, 5-methyl-2[1-methylethyl]phenol]	10		
Cc1ccc(C(C)C)cc1O [isopropyl-o-cresol, 5-isopropyl-2-methylphenol]	10	soluble in lipids	approx. 90%

From US20020103261A1, “Compositions for injection or intravenous administration for the treatment of internal infection or inflammation in humans and animals” (priority 2000, published 2002)
